Reference: ChEMBL document CHEMBL5223180, “Design, Synthesis, and Bioevaluation of Pyrido[2,3-d]pyrimidin-7-ones as Potent SOS1 Inhibitors” (ACS Med Chem Lett, 2023)
Values belong to the compound of their own block, whether it stands above or below them.

Assays:
[1] = system: GTPase KRas (Homo sapiens), P01116 [G12D]; conditions: dose 10.0 µM
[2] = system: MIA PaCa-2; assay: cells; conditions: Homo sapiens, MIA PaCa-2, 168 h
[3] = target: T1, Son of sevenless homolog 1 (Homo sapiens, UniProt Q07889); assay: Inhibition of 6His-tagged SOS1 (unknown origin) mediated GST-tagged KRAS G12D activation preincubated for 15 mins followed by KRAS G12D addition and measured after 30 mins by HTRF assay
T1 sequence (Q07889 whole entry): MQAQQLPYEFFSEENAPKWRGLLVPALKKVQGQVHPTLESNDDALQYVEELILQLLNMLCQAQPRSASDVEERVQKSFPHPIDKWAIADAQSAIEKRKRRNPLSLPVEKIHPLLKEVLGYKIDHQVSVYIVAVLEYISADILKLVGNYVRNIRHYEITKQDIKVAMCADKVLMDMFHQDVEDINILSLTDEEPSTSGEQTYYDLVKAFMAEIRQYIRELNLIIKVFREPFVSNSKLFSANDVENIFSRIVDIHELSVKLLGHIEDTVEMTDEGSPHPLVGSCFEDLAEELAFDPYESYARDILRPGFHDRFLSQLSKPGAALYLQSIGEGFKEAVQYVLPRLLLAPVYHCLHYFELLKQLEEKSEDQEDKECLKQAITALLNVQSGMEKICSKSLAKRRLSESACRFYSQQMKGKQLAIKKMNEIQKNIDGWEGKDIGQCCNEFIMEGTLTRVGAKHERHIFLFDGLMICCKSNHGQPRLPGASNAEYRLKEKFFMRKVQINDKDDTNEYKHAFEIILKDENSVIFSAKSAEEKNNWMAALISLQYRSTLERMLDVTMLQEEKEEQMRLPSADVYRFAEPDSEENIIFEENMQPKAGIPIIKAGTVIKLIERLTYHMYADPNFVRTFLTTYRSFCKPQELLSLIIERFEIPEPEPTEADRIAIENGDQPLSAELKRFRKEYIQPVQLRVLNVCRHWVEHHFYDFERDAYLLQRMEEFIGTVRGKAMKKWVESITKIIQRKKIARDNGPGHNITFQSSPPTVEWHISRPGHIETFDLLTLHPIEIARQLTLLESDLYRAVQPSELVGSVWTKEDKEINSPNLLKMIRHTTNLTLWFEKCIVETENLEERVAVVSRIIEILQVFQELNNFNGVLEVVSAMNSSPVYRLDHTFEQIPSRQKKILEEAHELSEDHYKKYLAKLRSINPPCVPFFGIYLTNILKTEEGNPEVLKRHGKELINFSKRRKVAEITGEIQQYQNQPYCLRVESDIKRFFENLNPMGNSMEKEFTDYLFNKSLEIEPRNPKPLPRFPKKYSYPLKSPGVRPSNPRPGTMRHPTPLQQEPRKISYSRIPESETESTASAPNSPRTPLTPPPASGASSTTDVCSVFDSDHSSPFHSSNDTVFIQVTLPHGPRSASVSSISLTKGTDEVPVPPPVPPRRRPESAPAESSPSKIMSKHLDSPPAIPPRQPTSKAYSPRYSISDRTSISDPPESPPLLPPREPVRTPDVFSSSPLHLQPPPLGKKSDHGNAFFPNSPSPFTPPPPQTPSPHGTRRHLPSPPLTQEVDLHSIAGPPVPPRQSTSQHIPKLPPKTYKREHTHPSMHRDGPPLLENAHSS

[4] = target: Fibroblast growth factor receptor 1 (Homo sapiens, UniProt P11362); assay: Inhibition of FGFR1 (unknown origin)
Sequence of Fibroblast growth factor receptor 1 (P11362 whole entry): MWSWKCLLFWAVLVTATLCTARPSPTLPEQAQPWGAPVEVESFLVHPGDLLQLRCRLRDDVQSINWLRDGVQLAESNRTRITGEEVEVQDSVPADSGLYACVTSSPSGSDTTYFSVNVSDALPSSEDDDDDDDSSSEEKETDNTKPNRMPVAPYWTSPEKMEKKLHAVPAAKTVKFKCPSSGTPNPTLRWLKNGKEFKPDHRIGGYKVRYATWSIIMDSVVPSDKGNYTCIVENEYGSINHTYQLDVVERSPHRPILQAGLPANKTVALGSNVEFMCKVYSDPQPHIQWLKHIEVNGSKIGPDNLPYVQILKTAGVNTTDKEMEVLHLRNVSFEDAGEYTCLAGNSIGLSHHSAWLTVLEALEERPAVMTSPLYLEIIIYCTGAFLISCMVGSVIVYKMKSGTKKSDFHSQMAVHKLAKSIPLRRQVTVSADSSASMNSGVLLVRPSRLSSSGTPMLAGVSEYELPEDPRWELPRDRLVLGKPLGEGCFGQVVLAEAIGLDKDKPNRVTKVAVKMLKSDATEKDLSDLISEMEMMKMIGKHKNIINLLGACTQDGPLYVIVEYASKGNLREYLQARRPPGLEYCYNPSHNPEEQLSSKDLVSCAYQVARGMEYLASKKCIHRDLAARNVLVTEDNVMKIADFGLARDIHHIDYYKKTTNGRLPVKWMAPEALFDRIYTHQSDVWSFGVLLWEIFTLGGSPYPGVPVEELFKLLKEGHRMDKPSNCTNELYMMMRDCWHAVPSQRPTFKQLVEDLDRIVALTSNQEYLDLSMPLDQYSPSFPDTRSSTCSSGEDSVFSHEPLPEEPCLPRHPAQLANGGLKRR

[5] = target: Epidermal growth factor receptor (Homo sapiens, UniProt P00533); assay: Inhibition of EGFR (unknown origin)
Sequence of Epidermal growth factor receptor (P00533 whole entry): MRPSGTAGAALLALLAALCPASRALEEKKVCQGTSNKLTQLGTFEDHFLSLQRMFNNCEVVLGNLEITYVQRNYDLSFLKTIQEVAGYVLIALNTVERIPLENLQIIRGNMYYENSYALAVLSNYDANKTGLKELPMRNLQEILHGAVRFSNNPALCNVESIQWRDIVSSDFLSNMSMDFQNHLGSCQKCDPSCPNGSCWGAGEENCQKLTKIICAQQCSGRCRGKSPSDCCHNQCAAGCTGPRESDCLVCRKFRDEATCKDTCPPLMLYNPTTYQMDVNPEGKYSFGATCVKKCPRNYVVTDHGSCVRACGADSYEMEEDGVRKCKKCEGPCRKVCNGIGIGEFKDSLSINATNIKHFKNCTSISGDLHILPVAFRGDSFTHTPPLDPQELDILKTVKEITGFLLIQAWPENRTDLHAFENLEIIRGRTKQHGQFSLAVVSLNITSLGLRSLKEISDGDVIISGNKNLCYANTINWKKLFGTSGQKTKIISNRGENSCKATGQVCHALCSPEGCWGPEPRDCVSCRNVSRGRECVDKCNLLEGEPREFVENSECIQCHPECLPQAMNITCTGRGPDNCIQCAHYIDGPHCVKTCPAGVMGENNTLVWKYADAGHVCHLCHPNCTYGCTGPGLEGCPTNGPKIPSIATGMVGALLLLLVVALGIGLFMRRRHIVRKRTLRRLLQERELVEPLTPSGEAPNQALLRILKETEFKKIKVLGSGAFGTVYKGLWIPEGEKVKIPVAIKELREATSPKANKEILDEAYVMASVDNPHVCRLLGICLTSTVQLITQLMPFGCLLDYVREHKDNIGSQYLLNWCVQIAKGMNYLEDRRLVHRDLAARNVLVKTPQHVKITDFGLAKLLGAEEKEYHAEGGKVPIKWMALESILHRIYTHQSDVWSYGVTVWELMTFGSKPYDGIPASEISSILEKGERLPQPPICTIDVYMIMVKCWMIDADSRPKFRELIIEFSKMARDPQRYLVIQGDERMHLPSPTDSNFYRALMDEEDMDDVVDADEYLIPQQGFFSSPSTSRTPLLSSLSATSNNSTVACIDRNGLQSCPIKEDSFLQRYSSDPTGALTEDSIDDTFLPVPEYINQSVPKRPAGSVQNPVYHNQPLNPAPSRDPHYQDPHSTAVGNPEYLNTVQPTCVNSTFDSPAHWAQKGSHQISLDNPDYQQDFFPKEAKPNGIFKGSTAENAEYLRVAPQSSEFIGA

[6] = target: Receptor tyrosine-protein kinase erbB-2 (Homo sapiens, UniProt P04626); assay: Inhibition of HER2 (unknown origin)
Sequence of Receptor tyrosine-protein kinase erbB-2 (P04626 whole entry): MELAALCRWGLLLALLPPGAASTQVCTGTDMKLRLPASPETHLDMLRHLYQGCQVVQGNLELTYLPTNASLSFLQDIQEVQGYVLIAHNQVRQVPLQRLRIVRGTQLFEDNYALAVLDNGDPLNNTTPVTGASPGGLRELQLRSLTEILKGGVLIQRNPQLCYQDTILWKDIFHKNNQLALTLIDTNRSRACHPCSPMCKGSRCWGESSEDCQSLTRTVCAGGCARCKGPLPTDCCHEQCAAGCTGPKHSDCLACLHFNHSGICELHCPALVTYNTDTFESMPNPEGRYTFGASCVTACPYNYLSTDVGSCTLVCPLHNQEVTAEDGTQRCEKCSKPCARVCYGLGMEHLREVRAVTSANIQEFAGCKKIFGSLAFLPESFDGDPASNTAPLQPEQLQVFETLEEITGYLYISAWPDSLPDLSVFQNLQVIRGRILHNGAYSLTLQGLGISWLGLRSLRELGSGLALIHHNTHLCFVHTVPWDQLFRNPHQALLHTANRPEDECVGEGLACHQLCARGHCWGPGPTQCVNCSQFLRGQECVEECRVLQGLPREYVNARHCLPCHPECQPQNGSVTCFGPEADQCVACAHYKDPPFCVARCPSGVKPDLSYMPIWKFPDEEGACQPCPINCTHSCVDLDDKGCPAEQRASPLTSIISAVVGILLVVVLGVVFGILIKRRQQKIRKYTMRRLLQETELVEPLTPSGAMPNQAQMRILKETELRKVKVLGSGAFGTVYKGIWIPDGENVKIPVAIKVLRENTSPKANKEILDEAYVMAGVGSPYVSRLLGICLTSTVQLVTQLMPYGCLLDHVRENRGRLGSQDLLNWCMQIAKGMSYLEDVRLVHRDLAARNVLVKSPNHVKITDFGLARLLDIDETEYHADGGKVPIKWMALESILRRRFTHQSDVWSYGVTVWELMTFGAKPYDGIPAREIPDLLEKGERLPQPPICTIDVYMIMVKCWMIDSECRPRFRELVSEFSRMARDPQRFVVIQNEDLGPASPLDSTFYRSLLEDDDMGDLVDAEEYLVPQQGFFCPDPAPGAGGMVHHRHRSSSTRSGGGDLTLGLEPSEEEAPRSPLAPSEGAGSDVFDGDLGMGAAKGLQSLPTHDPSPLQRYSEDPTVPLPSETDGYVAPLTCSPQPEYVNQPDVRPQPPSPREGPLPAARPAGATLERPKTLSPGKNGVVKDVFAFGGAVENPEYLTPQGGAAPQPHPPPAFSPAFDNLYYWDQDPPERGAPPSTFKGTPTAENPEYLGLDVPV

[7] = target: Platelet-derived growth factor receptor alpha (Homo sapiens, UniProt P16234); assay: Inhibition of PDGFRalpha (unknown origin)
Sequence of Platelet-derived growth factor receptor alpha (P16234 whole entry): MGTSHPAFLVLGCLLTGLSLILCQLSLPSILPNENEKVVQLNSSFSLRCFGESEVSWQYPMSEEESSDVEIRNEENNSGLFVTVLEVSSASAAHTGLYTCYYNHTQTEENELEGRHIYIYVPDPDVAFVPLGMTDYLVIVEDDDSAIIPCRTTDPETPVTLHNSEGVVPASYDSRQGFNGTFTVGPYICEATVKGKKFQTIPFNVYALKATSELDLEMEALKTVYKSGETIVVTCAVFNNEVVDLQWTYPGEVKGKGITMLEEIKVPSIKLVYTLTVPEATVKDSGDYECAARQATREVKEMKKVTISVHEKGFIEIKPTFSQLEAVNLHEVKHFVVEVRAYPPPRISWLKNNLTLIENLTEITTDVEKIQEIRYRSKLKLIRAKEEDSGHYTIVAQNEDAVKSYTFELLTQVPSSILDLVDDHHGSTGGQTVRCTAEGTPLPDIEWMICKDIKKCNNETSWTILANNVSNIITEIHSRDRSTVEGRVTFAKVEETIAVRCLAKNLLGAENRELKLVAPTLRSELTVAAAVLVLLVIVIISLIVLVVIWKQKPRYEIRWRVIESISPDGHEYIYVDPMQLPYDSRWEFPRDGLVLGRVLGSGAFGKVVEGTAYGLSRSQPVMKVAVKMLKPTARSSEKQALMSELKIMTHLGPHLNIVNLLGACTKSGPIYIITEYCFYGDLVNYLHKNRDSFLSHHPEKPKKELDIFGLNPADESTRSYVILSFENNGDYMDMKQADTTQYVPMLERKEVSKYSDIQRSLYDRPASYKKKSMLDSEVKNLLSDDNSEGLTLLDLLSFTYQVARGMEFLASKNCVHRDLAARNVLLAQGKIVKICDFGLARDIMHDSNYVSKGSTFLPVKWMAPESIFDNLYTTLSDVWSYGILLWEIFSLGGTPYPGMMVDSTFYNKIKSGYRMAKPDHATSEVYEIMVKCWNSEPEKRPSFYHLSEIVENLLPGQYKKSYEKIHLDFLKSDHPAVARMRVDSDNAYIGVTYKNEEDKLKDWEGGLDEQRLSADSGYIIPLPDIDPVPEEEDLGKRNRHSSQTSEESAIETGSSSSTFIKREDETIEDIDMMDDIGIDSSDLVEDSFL

[8] = target: Cyclin-dependent kinase 2 (Homo sapiens, UniProt P24941); assay: Inhibition of CDK2 (unknown origin)
[9] = target: Cyclin-dependent kinase 4 (Homo sapiens, UniProt P11802); assay: Inhibition of CDK4 (unknown origin)
Sequence of Cyclin-dependent kinase 4 (P11802 whole entry): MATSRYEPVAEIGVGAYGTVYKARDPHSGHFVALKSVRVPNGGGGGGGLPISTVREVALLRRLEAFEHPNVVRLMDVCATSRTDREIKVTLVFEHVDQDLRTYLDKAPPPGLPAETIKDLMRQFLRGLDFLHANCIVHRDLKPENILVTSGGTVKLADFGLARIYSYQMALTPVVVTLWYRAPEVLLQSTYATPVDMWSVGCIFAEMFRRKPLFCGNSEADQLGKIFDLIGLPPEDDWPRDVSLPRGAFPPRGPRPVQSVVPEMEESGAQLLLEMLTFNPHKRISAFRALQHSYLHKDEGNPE

Sequence of GTPase KRas (Homo sapiens), P01116 [G12D] (P01116 whole entry G12D, looked up): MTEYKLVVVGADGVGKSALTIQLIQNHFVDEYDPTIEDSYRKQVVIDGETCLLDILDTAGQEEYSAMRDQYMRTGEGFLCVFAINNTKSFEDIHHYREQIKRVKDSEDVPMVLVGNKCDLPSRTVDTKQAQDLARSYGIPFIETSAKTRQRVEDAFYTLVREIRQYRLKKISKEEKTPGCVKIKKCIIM

Structure (SMILES): COc1cc2nc(C)nc(N[C@H](C)c3cc(N)cc(C(F)(F)F)c3)c2cc1O[C@H]1CCOC1
ΔTm [1]: 0 °C
IC50 [2]: 0.03 µM

IC50 [3]: > 5 µM
Structure (SMILES): CC(=O)Nc1cc2c(N[C@H](C)c3cc(N)cc(C(F)(F)F)c3)ncnc2n(C)c1=O

IC50 [4]: > 10 µM
IC50 [5]: > 10 µM
IC50 [6]: > 10 µM
IC50 [7]: > 10 µM
IC50 [8]: > 10 µM
IC50 [9]: > 10 µM
Structure (SMILES): CC(=O)N1CCC(c2cc3c(N[C@H](C)c4cc(N)cc(C(F)(F)F)c4)nc(C)nc3n(C)c2=O)CC1

IC50 [3]: > 5 µM
Structure (SMILES): CC(=O)N1CCC(c2cc3c(Nc4cccc(C(F)(F)F)c4)ncnc3n(C)c2=O)CC1

IC50 [3]: > 5 µM
Structure (SMILES): C[C@@H](Nc1ncnc2c1ccc(=O)n2C)c1cc(N)cc(C(F)(F)F)c1

IC50 [3]: > 5 µM
Structure (SMILES): C[C@@H](Nc1ncnc2c1cc(NC1CCCCC1)c(=O)n2C)c1cc(N)cc(C(F)(F)F)c1

IC50 [3]: > 5 µM
Structure (SMILES): C[C@@H](Nc1ncnc2c1cc(N)c(=O)n2C)c1cc(N)cc(C(F)(F)F)c1
